{
  "source": "paper PMC9217999",
  "about": "(Targeted Oncology, 2022)",
  "key": {"[1]": {"test_system": "relapsed/refractory solid tumors with known/expected MAPK pathway involvement", "assay": "Investigator-assessed anti-tumor activity in iMATRIX-cobi", "assay_type": "in vivo, human"}, "[2]": {"settings": "cited from earlier work"}, "[3]": {"settings": "Days 1−21 of each 28-day cycle; cited from earlier work"}, "[4]": {"test_system": "unresectable/metastatic BRAF V600E/K-mutated melanoma", "settings": "combined with vemurafenib versus vemurafenib plus placebo, p < 0.0001; cited from earlier work"}, "[5]": {"settings": "adults, similar dose; cited from earlier work"}, "[6]": {"settings": "Dose escalation PN in NF1 (n = 12)"}},
  "note": "Marks after values point to notes of the source that are not given here.",
  "data": [
    {"compound": "O=C(c1ccc(F)c(F)c1Nc1ccc(I)cc1F)N1CC(O)([C@@H]2CCCCN2)C1", "note": "[cobimetinib]", "values": [
      {"measurement": "Best overall response: CR", "setting": "[1]; All LGG patients (n = 32)", "value": "0 n (%)"},
      {"measurement": "Best overall response: Non-CR/Non-PD", "setting": "[1]; All LGG patients (n = 32)", "value": "1 (3) n (%)"},
      {"measurement": "Best overall response: Non-evaluable", "setting": "[1]; All LGG patients (n = 32)", "value": "1 (3) n (%)"},
      {"measurement": "Best overall response: Not available", "setting": "[1]; All LGG patients (n = 32)", "value": "2 (6) n (%)"},
      {"measurement": "Best overall response: ORR", "setting": "[1]; All LGG patients (n = 32)", "value": "3 (9) n (%)"},
      {"measurement": "Best overall response: PD", "setting": "[1]; All LGG patients (n = 32)", "value": "7 (22) n (%)"},
      {"measurement": "Best overall response: PR", "setting": "[1]; All LGG patients (n = 32)", "value": "3 (9) n (%)"},
      {"measurement": "Best overall response: SD", "setting": "[1]; All LGG patients (n = 32)", "value": "18 (56) n (%)"},
      {"measurement": "Best overall response: CR", "setting": "[1]; Dose escalation LGG (n = 20)", "value": "0 n (%)"},
      {"measurement": "Best overall response: Non-CR/Non-PD", "setting": "[1]; Dose escalation LGG (n = 20)", "value": "1 (5) n (%)"},
      {"measurement": "Best overall response: Non-evaluable", "setting": "[1]; Dose escalation LGG (n = 20)", "value": "0 n (%)"},
      {"measurement": "Best overall response: Not available", "setting": "[1]; Dose escalation LGG (n = 20)", "value": "2 (10) n (%)"},
      {"measurement": "Best overall response: ORR", "setting": "[1]; Dose escalation LGG (n = 20)", "value": "2 (10) n (%)"},
      {"measurement": "Best overall response: PD", "setting": "[1]; Dose escalation LGG (n = 20)", "value": "5 (25) n (%)"},
      {"measurement": "Best overall response: PR", "setting": "[1]; Dose escalation LGG (n = 20)", "value": "2 (10) n (%)"},
      {"measurement": "Best overall response: SD", "setting": "[1]; Dose escalation LGG (n = 20)", "value": "10 (50) n (%)"},
      {"measurement": "Best overall response: CR", "setting": "[1]; [6]", "value": "0 n (%)"},
      {"measurement": "Best overall response: Non-CR/Non-PD", "setting": "[1]; [6]", "value": "0 n (%)"},
      {"measurement": "Best overall response: Non-evaluable", "setting": "[1]; [6]", "value": "0 n (%)"},
      {"measurement": "Best overall response: Not available", "setting": "[1]; [6]", "value": "0 n (%)"},
      {"measurement": "Best overall response: ORR", "setting": "[1]; [6]", "value": "0 n (%)"},
      {"measurement": "Best overall response: PD", "setting": "[1]; [6]", "value": "0 n (%)"},
      {"measurement": "Best overall response: PR", "setting": "[1]; [6]", "value": "0 n (%)"},
      {"measurement": "Best overall response: SD", "setting": "[1]; [6]", "value": "12 (100) n (%)"},
      {"measurement": "Best overall response: CR", "setting": "[1]; Expansion LGG (n = 12)", "value": "0 n (%)"},
      {"measurement": "Best overall response: Minor response per RANO criteria", "setting": "[1]; Expansion LGG (n = 12)", "value": "1 (8)^a n (%)"},
      {"measurement": "Best overall response: Non-CR/Non-PD", "setting": "[1]; Expansion LGG (n = 12)", "value": "0 n (%)"},
      {"measurement": "Best overall response: Non-evaluable", "setting": "[1]; Expansion LGG (n = 12)", "value": "1 (8) n (%)"},
      {"measurement": "Best overall response: Not available", "setting": "[1]; Expansion LGG (n = 12)", "value": "0 n (%)"},
      {"measurement": "Best overall response: ORR", "setting": "[1]; Expansion LGG (n = 12)", "value": "1 (8) n (%)"},
      {"measurement": "Best overall response: PD", "setting": "[1]; Expansion LGG (n = 12)", "value": "2 (17) n (%)"},
      {"measurement": "Best overall response: PR", "setting": "[1]; Expansion LGG (n = 12)", "value": "1 (8) n (%)"},
      {"measurement": "Best overall response: SD", "setting": "[1]; Expansion LGG (n = 12)", "value": "8 (67) n (%)"},
      {"measurement": "Best overall response: CR", "setting": "[1]; Overall population (n = 56)", "value": "0 n (%)"},
      {"measurement": "Best overall response: Non-CR/Non-PD", "setting": "[1]; Overall population (n = 56)", "value": "1 (2) n (%)"},
      {"measurement": "Best overall response: Non-evaluable", "setting": "[1]; Overall population (n = 56)", "value": "2 (4) n (%)"},
      {"measurement": "Best overall response: Not available", "setting": "[1]; Overall population (n = 56)", "value": "4 (7) n (%)"},
      {"measurement": "Best overall response: ORR", "setting": "[1]; Overall population (n = 56)", "value": "3 (5) n (%)"},
      {"measurement": "Best overall response: PR", "setting": "[1]; Overall population (n = 56)", "value": "3 (5) n (%)"},
      {"measurement": "Best overall response: SD", "setting": "[1]; Overall population (n = 56)", "value": "33 (59) n (%)"},
      {"measurement": "Median DoR", "setting": "[1]; in vivo", "value": "not reached"},
      {"measurement": "Median duration of stable disease", "setting": "[1]; overall", "value": 11.0, "unit": "months"},
      {"measurement": "Non-evaluable", "setting": "[1]; overall", "value": 4, "unit": "%"},
      {"measurement": "Median OS", "setting": "[1]; overall population", "value": "not reached"},
      {"measurement": "Overall response rate", "setting": "[1]; overall, 3/56, all partial responses in LGG", "value": 5.4, "unit": "%"},
      {"measurement": "Partial response (PR)", "setting": "[1]; overall, 3/56 patients, all with LGG", "value": 5, "unit": "%"},
      {"measurement": "Stable disease", "setting": "[1]; overall, 33/56", "value": 59, "unit": "%"},
      {"measurement": "Mean accumulation ratio in adults", "setting": "[2]", "value": 2.4, "unit": "fold"},
      {"measurement": "Recommended Phase II dose (RP2D) in adults", "setting": "[3]", "value": 60, "unit": "mg/day"},
      {"measurement": "Investigator-assessed progression-free survival (PFS)", "setting": "[4]", "value": "significantly improved"},
      {"measurement": "Objective response rate (ORR)", "setting": "[4]", "value": "significantly improved"},
      {"measurement": "Cobimetinib AUC lower in healthy subjects versus cancer patients", "setting": "[5]", "value": 50, "unit": "%"}
    ]}
  ]
}
